Publication PMC6274375, “Two New Pentacyclic Triterpene Saponins from the Leaves of Akebia trifoliata” (Molecules, 2016)

Tests used:
[1] = MTT cytotoxicity assay, A549 cells; assay type: cell-based; conditions: human, mean ± SD (n = 3)
Experimental: (§1) Compounds 1–7 were testeded for their cytotoxity against A549 (human lung adenocarcinoma), HeLa (human cervical carcinoma) and HepG2 (human liver hepatocellular carcinoma) cell lines. The three tumor cell lines were obtained from Kunming Institute of Zoology, Chinese Academy of Sciences. The cytotoxic activity of tested chemicals were assayed according to the MTT method using 96 well plates. Briefly, the cells were cultured in RPMI-1640 medium, supplemented with 10% fetal bovine serum in a humidified atmosphere with 5% CO2 at 37 °C. 100 μL adherent cells at the density of 5 × 10^4 cell/mL was seeded into each well of 96-well cell culture plates and incubated in 5% CO2 at 37 °C for 24 h to form a monolayer on the flat bottoms. Then, the supernatant per well was removed and subsequently added with 100 μL fresh medium and 100 μL medium containing a test compound. The plate was then incubated in 5% CO2 at 37 °C. After 72 h, 20 μL of 5 mg/mL MTT in DMSO was added into each well and incubated for 4 h. The supernatant per well was carefully removed and 150 μL DMSO was added. The plate was then vortex shaken for 15 min to dissolve blue formazan crystals. The optical density (OD) of each well was measured on a Genois microplate reader (Tecan GENios, Männedorf, Switzerland) at the wavelength of 570 nm. All experiments were performed in triplicate and adriamycin was used as a positive control. In each experiment, each of the tumor cell lines was exposed to the test compound at concentrations 50, 25, 12.5, 6.25, 3.125, 1.5625 µg/mL. The inhibitory rate of cell growth was calculated according to the following formula: Inhibition rate (%) = (ODcontrol − ODtreated)/ODcontrol × 100%. IC50 values were calculated by SPSS 16.0 statistic software. The values were based on three individual experiments and expressed as means ± standard deviation (SD).

[2] = MTT cytotoxicity assay, HeLa cells; assay type: cell-based; conditions: human, mean ± SD (n = 3)
Experimental: as §1

[3] = MTT cytotoxicity assay, HepG2 cells; assay type: cell-based; conditions: human, mean ± SD (n = 3)
Experimental: as §1

α-glucosidase = assay: α-Glucosidase inhibition assay (PNPG substrate); assay type: biochemical; conditions: pH 6.8, 37 °C, read-out: α-glucosidase inhibitory activity IC50
Experimental: The a-glucosidase inhibitory activity of 1–7 were determined spectrophotometrically in a 96-well microtiter plate based on p-nitrophenyl-α-D-glucopyranoside (PNPG) as a substrate following the method described in literature with slight modifications. In brief, α-glucosidase (20 μL, 0.8 U/mL) and various concentrations (500, 250, 125, 62.5, 31.25, 15.625 µg/mL) of tested compounds (120 μL) in 67 mM phosphate buffer (pH 6.8) were mixed at room temperature for 10 min. Reactions were initiated by addition of 5.0 mM PNPG (20 μL). The reaction mixture was incubated for 15 min at 37 °C in a final volume of 160 μL. Then, 0.2 M Na2CO3 (80 μL) was added to the incubation solution to stop the reaction. The activities were detected in a 96-well plate, and the absorbance was determined at 405 nm (for p-nitrophenol). The negative blank was set by adding phosphate buffer instead of the sample via the same way as the test. […] The blank was set by adding phosphate buffer instead of the α-glucosidase using the same method. Inhibition rate (%) = [(ODnegative control − ODblank) − (ODtest − ODtest blank)]/(ODnegative blank − ODblank) × 100%. IC50 values of the samples were calculated using the Microsoft Office Excel soft.

[4] = system: human tumor A549, HeLa and HepG2 cell lines; assay: MTT cytotoxicity, summary statements over the three cell lines; assay type: cell-based; conditions: A549, HeLa and HepG2
Experimental: as §1

[5] = as above; assay type: cell-based, human; conditions: human, A549, HeLa and HepG2 cells (range over the three cell lines)
Experimental: as §1

[6] = range over A549, HeLa and HepG2 and over both compounds, read-out: Cytotoxicity IC50 values, range over all three cancer cell lines
[7] = range over the three cell lines and over both compounds, as given in abstract, read-out: Cytotoxicity IC50 values, range over A549, HeLa and HepG2

Row | Structure (SMILES) | IC50 at 72 h [1] [µM] | IC50 at 72 h [2] [µM] | IC50 at 72 h [3] [µM] | IC50 (α-glucosidase) [µM] | In vitro cytotoxicity, result in words [4] | IC50 at 72 h [5, 6] [µM] | IC50 at 72 h [5, 7] [µM]
1 | CC1(C)CC[C@]2(C(=O)O)CC[C@]3(C)C(=CC[C@@H]4[C@@]5(C)C[C@@H](O)[C@H](O)[C@@](C)(CO)[C@@H]5CC[C@]43C)[C@@H]2C1 [Compound 7, arjunolic acid] | 33.6 ± 3.13 | 24.4 ± 1.49 | 38.1 ± 1.63 | 40 | moderate in vitro cytotoxicity | 22.7 to 38.1 | 23 to 38
2 | CC1(C)CC[C@]2(C(=O)O)CC[C@]3(C)C(=CCC4[C@@]5(C)C[C@@H](O)[C@H](O)[C@@](C)(C=O)C5CC[C@]43C)C2C1 (stereo partly drawn) [Compound 5, 2α,3β-dihydroxy-23-oxo-olean-12-en-28-oic acid] | 30.2 ± 4.55 | 22.7 ± 1.96 | 38 ± 7.57 | 47 | moderate in vitro cytotoxicity | 22.7 to 38.1 | 23 to 38
3 | C=C1CC[C@]2(C(=O)O)CC[C@]3(C)C(=CCC4[C@@]5(C)C[C@@H](O)[C@H](O)[C@@](C)(C=O)C5CC[C@]43C)C2C1 (stereo partly drawn) [Compound 6, 2α,3β-dihydroxy-23-oxo-30-norolean-12,20 (29)-dien-28-oic acid] | > 100 | > 100 | > 100 | 220 |  |  | 
